Test results reported in US20110171328A1, “PHARMACEUTICAL COMPOSITION FOR TREATING DIABETES” (priority 2008, published 2011).

How the values were obtained:
[1] = tested on: SD rats with streptozotocin-induced hyperglycemia; test: Blood glucose of rats with streptozotocin-induced hyperglycemia after intragastric sucrose; assay type: in vivo; settings: STZ rats, 60 mg/kg intragastric for 14 days
Protocol: Medicines: 1-deoxynojirimycin-fagomine mixture (2:1), homemade. The mixture is prepared to the required concentration with distilled water before the test. Glucobay is obtained from Bayer Healthcare Co., Ltd. Catechin, ginkgo biloba extract and flavonoids from mulberry leaves were obtained from Hunan Geneham Biomedical Technology Ltd. 2. Animals: SD rats with the weight of 180-220 g, half male and half female, provided by Hunan Institute of Pharmaceutical Industry Research. Modeling method: carry out small dose intravenous injection of 25 mg/kg of streptozotocin on the rats after fasting for 24 h, once a week, simultaneously heat feed for feeding, induce H type diabetes, determine the blood glucose 1 week after the second injection, and select the animals with the fasting blood glucose of above 7.8 mmol/L for carrying out the test. […] Reagents: streptozotocin, product of Sigma Company, USA. Use citric acid buffer solution (PH=4.0) before modeling, and prepare at low temperature; sucrose, analytically pure. […] PLUS blood glucose monitoring meter. […]

[2] = tested on: NOD mice with spontaneous hyperglycemia; test: Blood glucose of mice with spontaneous hyperglycemia after 14 days intragastric administration; assay type: in vivo; settings: for Blood glucose after administration: 1 h after administration at day 14, fasted 6 h, X ± SD; for Blood glucose before administration: n=10, X ± SD
Protocol: (§1) Impacts of the composition in different doses on blood glucose and serum insulin of mice with spontaneous hyperglycemia
(§2) 1, Medicines: 1-deoxynojirimycin and fagomine, prepared by the inventor. The two are prepared into the required concentrations with distilled water before the test (the sum of the concentrations of the 1-deoxynojirimycin and the fagomine in the composition is the same as the concentration of the fagomine or the 1-deoxynojirimycin which is prepared alone). Glibenclamide is obtained from Hunan Dongting Pharmaceutical Co., Ltd. 2. Animals: NOD mice with the weight of 25-35 g, provided by Experimental Animal Center, Peking University Health Science Center. Determine the blood glucose before the test and select the animals with the blood glucose value of above 11.1 mmol/L for carrying out the test. 3. Determination instrument: Yicheng blood glucose tester, developed by Beijing Yicheng Bioelectronic Technology Co., Ltd. 4. Main reagents: ^125I-insulin radioimmunoassay kit, produced by Department of Isotopes, China Institute of Atomic Energy. 5. Test method and results (1) Impacts on the blood glucose of the mice: determine the blood glucose of the NOD mice after fasting for 6 h, select 70 animals with blood glucose above 11.1 mmol/L, randomly divide into seven groups, respectively carry out intragastric administration and give the following medicines: i) control group (distilled water); ii) glibenclamide group (50 mg/kg); and iii)-v) composition in different mixing ratios (20 mg/kg, with different medicine proportions and constant total amount). Carry out the continuous administration for 14 days, fast for 6 h before the administration at the 14th day, draw blood from the animals 1 h after the administration, use the Yicheng blood glucose tester to determine the blood glucose value of the animals, and determine the serum insulin by radioimmunoassay.

[3] = tested on: NOD mice with spontaneous hyperglycemia; test: Serum insulin of mice with spontaneous hyperglycemia (radioimmunoassay); assay type: in vivo; settings: for Serum insulin: 1 h after administration at day 14, X ± SD; for Effect on serum insulin of the NOD mice, result in words: 20 mg/kg, 14 days
Protocol: as §1, §2

α-D-glucosidase = test: Determination of α-D-glucosidase inhibitory activity (PNPG colorimetry at 400 nm); assay type: biochemical; settings: 30 μL inhibitor sample solution in total, from 5 μmol/mL stock solutions, total amount of DNJ and Fag constant, 37° C.
Excerpt: Determination of α-D-glucosidase inhibitory activity of the combination compatibility of 1-deoxynojirimycin and fagomine. 1. Medicines: 1-deoxynojirimycin and fagomine, homemade. 2. Reagents: potassium dihydrogen phosphate, sodium hydroxide, sodium bicarbonate, para-nitrophenyl glucoside (PNPG), reduced glutathione and α-D-glucosidase sucrose. 3. Instrument: TU-1901 UV-Vis spectrophotometer. 4. Test method and results (1) Preparation of potassium phosphate buffer solution: dissolve 0.68120 g of potassium dihydrogen phosphate in 25 mL of distilled water, obtain stock solution 1, dissolve 0.2 g of NaOH in 25 mL of the distilled water, obtain stock solution 2, suck the stock solution 1 (25 mL), add into the stock solution 2 (11.8 mL), shake up, dilute to 100 mL and obtain the potassium phosphate buffer solution. (2) Na2CO[…] solution: […] Take 250 μL of the 1-deoxynojirimycin stock solution, dilute to 1 mL with the distilled water, and obtain the stock solution 1. Take 250 μL of the fagomine stock solution, dilute to 1 mL with the distilled water, and obtain the stock solution 2. […] (9) Determination reaction of α-D-glucosidase inhibitory activity Add the reagents according to the sequence in Table 1 for reaction, determine the absorbance value and calculate the α-glycosidase inhibition ratio of a sample according to the following formula: [formula] […]

[4] = 50 mg/kg intragastric for 14 days
[5] = 20 mg/kg intragastric for 14 days

| Compound | Blood glucose value of rats with hyperglycemia, after administration ([1]; day 14, 1.0 h after 5.0 g/kg sucrose) [mmol/L] | Blood glucose value of rats with hyperglycemia, before administration ([1]; day 14, fasted 6 h, before sucrose administration) [mmol/L] | Blood glucose after administration [2, 4] [mmol/L] | Blood glucose before administration ([2]; 50 mg/kg intragastric) [mmol/L] | Serum insulin [3, 4] [MIU/L] | Blood glucose after administration [2, 5] [mmol/L] | Blood glucose before administration ([2]; 20 mg/kg intragastric) [mmol/L] | Effect on blood glucose of the NOD mice, result in words ([2]; 20 mg/kg, 14 days) | Serum insulin [3, 5] [MIU/L] | Effect on serum insulin of the NOD mice, result in words [3] | α-glycosidase inhibition ratio % (α-D-glucosidase) [%] |
| --- | --- | --- | --- | --- | --- | --- | --- | --- | --- | --- | --- |
| Catechin | 14.10 ± 1.50 | 9.17 ± 0.89 |  |  |  |  |  |  |  |  |  |
| COc1ccc(Cl)cc1C(=O)NCCc1ccc(S(=O)(=O)NC(=O)NC2CCCCC2)cc1 [Glibenclamide] |  |  | 10.57 ± 2.17 | 13.26 ± 2.26 | 22.57 ± 3.05 |  |  |  |  |  |  |
| OCC1NCC(O)C(O)C1O (stereo not shown) [DNJ] |  |  |  |  |  | 10.60 ± 2.13 | 14.20 ± 1.33 | significantly reduce the blood glucose | 16.14 ± 2.63 | little effect | 44 |
| OC[C@H]1NCC[C@@H](O)[C@@H]1O [Fagomine, fagomine] |  |  |  |  |  | 12.24 ± 1.62 | 13.49 ± 1.65 |  | 21.78 ± 3.34 | significantly improve the serum insulin level | 21 |
